Experimental data: patent US7994176B2, “Inhibitors of 11-beta-hydroxysteroid dehydrogenase 1” (Eli Lilly and Company, priority 2006, dated 2011)

How the values were obtained:
11β-HSD1 = target: T1, 11β-HSD1 (Homo sapiens, UniProt P28845); assay: Human aortic smooth muscle cell assay; format: cell-based; settings: primary human AoSMC, hTNFα-induced 11β-HSD1, cortisol formed from cortisone
T1 construct: hTNFα to induce expression of 11β-HSD1; endogenous in cells; host or cells: primary human aortic smooth muscle cells (AoSMC), induced with hTNFα
Protocol: Human Aortic Smooth Muscle Cell Assay
Primary human aortic smooth muscle cells (AoSMC) are cultured in 5% FBS growth medium to a passage number of 6, then pelleted by centrifugation and resuspended at a density of 9×10^4 cells/mL in 0.5% FBS assay medium containing 12 ng/mL hTNFα to induce expression of 11β-HSD1. Cells are seeded into 96-well tissue culture assay plates at 100 μL/well (9×10^3 cells/well) and incubated for 48 hours at 37° C., 5% CO2. Following induction, cells are incubated for 4 hours at 37° C., 5% CO2 in assay medium containing test compounds then treated with 10 μL/well of 10 μM cortisone solubilized in assay medium, and incubated for 16 hours at 37° C., 5% CO2. Medium from each well is transferred to a plate for subsequent analysis of cortisol using a competitive fluorescence resonance time resolved immunoassay. […] Higher levels of free cortisol result in diminishing energy transfer from the Europium-IgG to the APC-cortisol complex resulting in less APC fluorescence. Fluorescent intensities for Europium and APC are measured using a LJL Analyst AD. Europium and APC […] is measured using 360 nm excitation and 615 nm and 650 nm emission filters respectively. […] Fluorescent intensities measured for APC are modified by dividing by the Eu fluorescence (APC/Eu). […]

cortisone conversion = assay: Acute in vivo cortisone conversion assay; settings: male C57BL/6 mice, oral, cortisone challenge 16 hours post dose, serum cortisol
Protocol: Acute In Vivo Cortisone Conversion Assay
In general, compounds are dosed orally into mice, the mice are challenged with a subcutaneous injection of cortisone at a set timepoint after compound injection, and the blood of each animal is collected some time later. Separated serum is then isolated and analyzed for levels of cortisone and cortisol by LC-MS/MS, followed by calculation of mean cortisol and percent inhibition of each dosing group. Specifically, male C57BL/6 mice are obtained from Harlan Sprague Dawley at average weight of 25 grams. Exact weights are taken upon arrival and the mice randomized into groups of similar weights. Compounds are prepared in 1% w-w HEC, 0.25% w-w polysorbate 80, 0.05% w-w Dow Corning antifoam #1510-US at various doses based on assumed average weight of 25 grams. Compounds are dosed orally, 200 μl per animal, followed by a subcutaneous dose, 200 μl per animal, of 30 mg/kg cortisone at 1 to 24 hours post compound dose. At 10 minutes post cortisone challenge, each animal is euthanized for 1 minute in a CO2 chamber, followed by blood collection via cardiac puncture into serum separator tubes. Once fully clotted, tubes are spun at 2500×g, 4° C. for 15 minutes, the serum transferred to wells of 96-well plates (Corning Inc, Costar #4410, cluster tubes, 1.2 ml, polypropylene), and the plates are frozen at −20° C. until analysis by LC-MS/MS. […]

T1 sequence (P28845 whole entry): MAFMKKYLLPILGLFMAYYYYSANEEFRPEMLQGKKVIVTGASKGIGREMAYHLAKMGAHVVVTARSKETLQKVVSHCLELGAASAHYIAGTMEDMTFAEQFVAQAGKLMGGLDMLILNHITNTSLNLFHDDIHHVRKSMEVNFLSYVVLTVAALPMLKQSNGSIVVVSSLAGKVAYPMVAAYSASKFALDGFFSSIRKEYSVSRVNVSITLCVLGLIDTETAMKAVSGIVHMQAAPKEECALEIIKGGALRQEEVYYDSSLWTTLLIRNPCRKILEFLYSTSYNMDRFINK

Row | Compound | IC50 (11β-HSD1) [nM] | % Inhibition after 16 hours (cortisone conversion; dose of 30 mg/kg) | % Inhibition after 16 hours (cortisone conversion; dose of 10 mg/kg)
1 | O=C(c1ccc(-c2cc(Cl)c(CN3CCC(C4CCCCC4)C3=O)c(Cl)c2)cc1)N1CCN(CCF)CC1 (racemic) [Example 5, 3-Cyclohexyl-1-{3,5-dichloro-4′-[4-(2-fluoro-ethyl)-piperazine-1-carbonyl]-biphenyl-4-ylmethyl}-pyrrolidin-2-one] | 15.4 | 84 (dose of 30 (mg/kg)) % | 
2 | O=C(c1ccc(-c2cc(Cl)c(CN3CCC(N4CCCCC4)C3=O)c(Cl)c2)cc1)N1CCC(C(F)(F)F)CC1 (racemic) [Example 16, 1-[3,5-Dichloro-4′-(4-trifluoromethyl-piperidine-1-carbonyl)-biphenyl-4-ylmethyl]-3-piperidin-1-yl-pyrrolidin-2-one] | 294 |  | 38 (dose of 10 (mg/kg)) %
